Experiments:
[1] = test system: rat; settings: Sub-acute repeat dose toxicity, Oral, Gavage/Intubation, dose end: 7 day, group: systemic
[2] = test system: mouse; settings: Sub-acute repeat dose toxicity, Oral, Gavage/Intubation, dose end: 7 day, group: systemic
[3] = test system: rat; settings: Sub-acute repeat dose toxicity; Oral; Gavage/Intubation; dose end: 7 day; group: systemic; systemic / organ weight / adrenal gland / absolute + systemic / organ weight / liver / absolute + systemic / pathology microscopic / kidney…
[4] = test system: dog; settings: Sub-acute repeat dose toxicity, beagle, Oral, Gavage/Intubation, dose end: 29 day, group: systemic
[5] = test system: mouse; settings: Chronic toxicity, Oral, Gavage/Intubation, dose end: 186 day, group: systemic
[6] = test system: dog; settings: Sub-acute repeat dose toxicity; beagle; Oral; Gavage/Intubation; dose end: 14 day; group: systemic; systemic / in life observation / clinical signs / emesis + systemic / in life observation / clinical signs / salivation + systemic / in life…
[7] = test system: mouse; settings: Sub-acute repeat dose toxicity, Oral, Gavage/Intubation, dose end: 7 day, group: systemic; remark: listed apart in the source
[8] = test system: rat; settings: Sub-acute repeat dose toxicity; Injection; Intravenous; dose end: 7 day; group: systemic; systemic / hematology / platelet / platelet + systemic / organ weight / liver / absolute + systemic / pathology microscopic / liver / …
[9] = test system: rabbit; settings: Prenatal developmental toxicity study, Oral, Gavage/Intubation, dose end: 19 GD
[10] = test system: dog; settings: Sub-acute repeat dose toxicity, beagle, Oral, Gavage/Intubation, dose end: 7 day, group: systemic
[11] = test system: mouse; settings: Sub-acute repeat dose toxicity, Oral, Gavage/Intubation, dose end: 30 day, group: systemic
[12] = systemic / pathology microscopic / adrenal gland / hypertrophy + systemic / pathology microscopic / kidney / regeneration + systemic / …
[13] = systemic / clinical chemistry / creatinine / creatinine + systemic / clinical chemistry / potassium / potassium + systemic / in life …
[14] = systemic / organ weight / liver / absolute
[15] = systemic / in life observation / clinical signs / arrhythmia + systemic / organ weight / testes / absolute + systemic / organ weight / …
[16] = systemic / in life observation / food consumption / food consumption + systemic / pathology microscopic / liver / depletion glycogen + …
[17] = systemic / clinical chemistry / alkaline phosphatase (alp/alk) / alkaline phosphatase (alp/alk) + systemic / clinical chemistry / …
[18] = systemic / clinical chemistry / bilirubin / total bilirubin + systemic / in life observation / body weight / body weight + systemic / organ …
[19] = systemic / clinical chemistry / cholesterol / cholesterol + systemic / pathology microscopic / liver / vacuolization + systemic / clinical …
[20] = systemic / organ weight / liver / absolute + systemic / pathology microscopic / liver / hypertrophy
[21] = systemic / clinical chemistry / alanine aminotransferase (alt/sgpt) / alanine aminotransferase (alt/sgpt) + systemic / pathology microscopic…
[22] = systemic / clinical chemistry / alanine aminotransferase (alt/sgpt) / alanine aminotransferase (alt/sgpt) + systemic / clinical chemistry / …

Q: Which LOAEL [1, 12] does the source give for CCc1nn(CCO)c(CC)c1Oc1cc(C#N)cc(C#N)c1 [Lersivirine] here?
A: > 150 mg/kg/day

Q: And the NOAEL [1, 12]?
A: ≥ 150 mg/kg/day

Q: And the NEL ([1]; systemic / pathology microscopic / kidney / regeneration + systemic / pathology microscopic / adrenal gland / vacuolization + systemic / …)?
A: < 35 mg/kg/day

Q: What about the LOAEL [2, 13] of the same molecule?
A: > 750 mg/kg/day

Q: What about the NOAEL [2, 13] of the same molecule?
A: ≥ 750 mg/kg/day

Q: What about the LEL [2, 14] of the same molecule?
A: 70 mg/kg/day

Q: What about the NEL [2, 14] of the same molecule?
A: < 70 mg/kg/day

Q: What about the LOAEL [3] of the same molecule?
A: > 35 mg/kg/day

Q: What about the NEL [3] of the same molecule?
A: < 35 mg/kg/day

Q: And the NOAEL [3]?
A: ≥ 35 mg/kg/day

Q: And the LEL [4, 15]?
A: 10 mg/kg/day

Q: And the NEL [4, 15]?
A: < 10 mg/kg/day

Q: And the LOAEL [4, 16]?
A: > 50 mg/kg/day

Q: And the NOAEL [4, 16]?
A: ≥ 50 mg/kg/day

Q: What about the LEL [5, 17] of the same molecule?
A: 70 mg/kg/day

Q: And the NEL [5, 17]?
A: < 70 mg/kg/day

Q: And the LOAEL [5, 18]?
A: > 700 mg/kg/day

Q: And the NOAEL [5, 18]?
A: ≥ 700 mg/kg/day

Q: What about the LEL [6] of the same molecule?
A: 5 mg/kg/day

Q: What about the LOAEL [6] of the same molecule?
A: > 150 mg/kg/day

Q: And the NEL [6]?
A: < 5 mg/kg/day

Q: And the NOAEL [6]?
A: ≥ 150 mg/kg/day

Q: And the LOAEL [7, 19]?
A: > 250 mg/kg/day

Q: And the NOAEL [7, 19]?
A: ≥ 250 mg/kg/day

Q: What about the NEL [7, 20] of the same molecule?
A: < 35 mg/kg/day

Q: And the LOAEL [8]?
A: > 35 mg/kg/day

Q: What about the NEL [8] of the same molecule?
A: < 35 mg/kg/day

Q: What about the NOAEL [8] of the same molecule?
A: ≥ 35 mg/kg/day

Q: What about the NEL ([9]; group: developmental, developmental / developmental malformation / bone / absent + developmental / developmental malformation / bone / fused) of the same molecule?
A: 250 mg/kg/day

Q: And the NEL ([9]; group: maternal, reproductive / reproductive performance / postimplantation loss / postimplantation loss)?
A: < 100 mg/kg/day

Q: What about the LOAEL [10, 21] of the same molecule?
A: > 150 mg/kg/day

Q: What about the NOAEL [10, 21] of the same molecule?
A: ≥ 150 mg/kg/day

Q: What about the LEL [10, 17] of the same molecule?
A: 10 mg/kg/day

Q: What about the NEL [10, 17] of the same molecule?
A: < 10 mg/kg/day

Q: What about the LOAEL [11, 22] of the same molecule?
A: > 500 mg/kg/day

Q: And the NOAEL [11, 22]?
A: ≥ 500 mg/kg/day

Q: What about the LEL [11, 20] of the same molecule?
A: 50 mg/kg/day

Q: And the NEL [11, 20]?
A: < 50 mg/kg/day

— EPA's ToxRefDB 2
